Source: the supplement of paper PMC11061612

Legend:
Experiment in all cases: Bliss excess, mean over the matrix (fraction); higher = more synergy
[1] = system: RERF-LC-KJ (Lung Adenocarcinoma)
In short: (§1)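 Bliss excess equals the observed combination effect minus the expected value EA + EB − EA·EB, where EA and EB are the effects of each agent alone. Combination Emax is the second-highest inhibition within the matrix. Inhibition was scaled from CellTiter-Glo 2.0 luminescence, with 0 set by vehicle wells and 1 by blank wells, after 72 hours of two-drug dosing of cells plated in 1536-well plates.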

CHL-1 (Melanoma) = system: CHL-1 (Melanoma)
In short: as §1

[2] = system: KYSE-70 (Esophageal Squamous Cell Carcinoma)
In short: as §1

[3] = system: NCI-H1755 (Lung Adenocarcinoma)
In short: as §1

Q: How did the Bliss excess [1] turn out when `C[C@@H]1COCCN1c1cc(C2([S@](C)(=N)=O)CC2)nc(-c2ccnc3[nH]ccc23)n1` [AZD6738] + O=C(c1cc(Cc2n[nH]c(=O)c3ccccc23)ccc1F)N1CCN(C(=O)C2CC2)CC1 [Olaparib] (first compound max 10 µM, 7x7, partner max 10 µM) was run?
A: Its Bliss excess is 0.0228.

Q: What about the Bliss excess (CHL-1 (Melanoma)) of the same compound?
A: The Bliss excess was -0.0498.

Q: What about the Bliss excess [2] of the same compound?
A: Its Bliss excess is 0.021.

Q: And the Bliss excess [3]?
A: Its Bliss excess is -0.0131.

Q: Which Bliss excess [1] does the source give for `CN(CCO)CC[C@H](CSc1ccccc1)Nc1ccc(S(=O)(=O)NC(=O)c2ccc(N3CCC([C@@H](O)c4ccccc4-c4ccc(Cl)cc4)CC3)cc2)cc1S(=O)(=O)C(F)(F)F` [AZD4320] + CN(C)CCCOc1ccc(-c2ccc3ncc4c(c3c2)n(C2CCOCC2)c(=O)n4C)cn1 [AZD0156] (first compound max 1 µM, 7x7, partner max 1 µM) here?
A: The Bliss excess was -0.0413.

Q: And the Bliss excess (CHL-1 (Melanoma))?
A: Its Bliss excess is -0.0242.

Q: What about the Bliss excess [2] of the same compound?
A: Its Bliss excess is -0.0124.

Q: And the Bliss excess [3]?
A: The Bliss excess was -0.0164.

Q: Which Bliss excess [1] does the source give for `CN(CCO)CC[C@H](CSc1ccccc1)Nc1ccc(S(=O)(=O)NC(=O)c2ccc(N3CCC([C@@H](O)c4ccccc4-c4ccc(Cl)cc4)CC3)cc2)cc1S(=O)(=O)C(F)(F)F` [AZD4320] + C[C@@H]1COCCN1C2=NC(=NC(=C2)C3(CC3)[S@](=N)(=O)C)C4=C5C=CNC5=NC=C4 [AZD6738] (first compound max 1 µM, 7x7, partner max 10 µM) here?
A: Its Bliss excess is -0.0377.

Q: And the Bliss excess (CHL-1 (Melanoma))?
A: Its Bliss excess is 0.0607.

Q: What about the Bliss excess [2] of the same compound?
A: The Bliss excess was -0.0096.

Q: And the Bliss excess [3]?
A: Its Bliss excess is -0.0214.

Q: Which results are given for `Cc1cc2ncnn2cc1Nc1ncc2c(n1)n(C1CCOCC1)c(=O)n2C` [AZD7648] + O=C(c1cc(Cc2n[nH]c(=O)c3ccccc23)ccc1F)N1CCN(C(=O)C2CC2)CC1 [Olaparib] (first compound max 10 µM, 7x7, partner max 10 µM)?
A: Bliss excess [1]: -0.0546; Bliss excess (CHL-1 (Melanoma)): -0.0266; Bliss excess [2]: -0.0528; Bliss excess [3]: -0.0464

Q: `CC(=O)Nc1cccc(-n2c(=O)n(C3CC3)c(=O)c3c(Nc4ccc(I)cc4F)n(C)c(=O)c(C)c32)c1` [Trametinib] + Cc1nc(-c2cn3c(n2)-c2ccc(-c4cnn(C(C)(C)C(N)=O)c4)cc2OCC3)n(C(C)C)n1 [Taselisib] (first compound max 1 µM, 7x7, partner max 10 µM) was tested. Which Bliss excess [1] did it give?
A: Its Bliss excess is 0.0564.

Q: And the Bliss excess (CHL-1 (Melanoma))?
A: The Bliss excess was 0.171.

Q: What about the Bliss excess [2] of the same compound?
A: Its Bliss excess is 0.182.

Q: And the Bliss excess [3]?
A: Its Bliss excess is 0.115.

Q: What does the source list for `Cc1cc2ncnn2cc1Nc1ncc2c(n1)n(C1CCOCC1)c(=O)n2C` [AZD7648] + C=CCn1c(=O)c2cnc(Nc3ccc(N4CCN(C)CC4)cc3)nc2n1-c1cccc(C(C)(C)O)n1 [AZD1775] (first compound max 10 µM, partner max 1 µM)?
A: Bliss excess [1]: 0.0509; Bliss excess (CHL-1 (Melanoma)): 0.014; Bliss excess [2]: 0.0184; Bliss excess [3]: 0.0084

Q: How did the Bliss excess [1] turn out when `CCN(CCO)CCCOc1ccc2c(Nc3cc(CC(=O)Nc4cccc(F)c4)[nH]n3)ncnc2c1` [AZD2811] + C[C@@H]1COCCN1C2=NC(=NC(=C2)C3(CC3)[S@](=N)(=O)C)C4=C5C=CNC5=NC=C4 [AZD6738] (first compound max 1 µM, 7x7, partner max 10 µM) was run?
A: The Bliss excess was -0.0512.

Q: And the Bliss excess (CHL-1 (Melanoma))?
A: The Bliss excess was -0.0344.

Q: What about the Bliss excess [2] of the same compound?
A: The Bliss excess was -0.0383.

Q: And the Bliss excess [3]?
A: The Bliss excess was -0.0621.

Q: What does the source list for `COc1cc2c(cc1OCCCCCOc1cc3c(cc1OC)C(=O)N1C=C(C)C[C@H]1C=N3)N=C[C@@H]1CC(C)=CN1C2=O` [SG3199] + O=C(c1cc(Cc2n[nH]c(=O)c3ccccc23)ccc1F)N1CCN(C(=O)C2CC2)CC1 [Olaparib] (first compound max 0.001 µM, 7x7, partner max 10 µM)?
A: Bliss excess [1]: -0.0235; Bliss excess (CHL-1 (Melanoma)): -0.0227; Bliss excess [2]: -0.0227; Bliss excess [3]: -0.0207

Q: For `COc1cccc(OCCCN)c1-c1cc(Nc2cnc(C#N)cn2)n[nH]1` [Prexasertib] + O=C(c1cc(Cc2n[nH]c(=O)c3ccccc23)ccc1F)N1CCN(C(=O)C2CC2)CC1 [Olaparib] (first compound max 1 µM, 7x7, partner max 10 µM), which Bliss excess [1] is on record?
A: The Bliss excess was -0.0597.

Q: And the Bliss excess (CHL-1 (Melanoma))?
A: The Bliss excess was -0.051.

Q: And the Bliss excess [2]?
A: The Bliss excess was -0.0248.

Q: What about the Bliss excess [3] of the same compound?
A: The Bliss excess was -0.0582.

Q: `CCN(CCO)CCCOc1ccc2c(Nc3cc(CC(=O)Nc4cccc(F)c4)[nH]n3)ncnc2c1` [AZD2811] + O=C(c1cc(Cc2n[nH]c(=O)c3ccccc23)ccc1F)N1CCN(C(=O)C2CC2)CC1 [Olaparib] (first compound max 1 µM, 7x7, partner max 10 µM) was tested. Which Bliss excess [1] did it give?
A: The Bliss excess was -0.0471.

Q: And the Bliss excess (CHL-1 (Melanoma))?
A: The Bliss excess was -0.0035.

Q: What about the Bliss excess [2] of the same compound?
A: The Bliss excess was 0.0005.

Q: And the Bliss excess [3]?
A: The Bliss excess was 0.0146.

Q: Which Bliss excess [1] does the source give for `Cc1c2c(nn1C)CSCc1cc(n(C)n1)CSc1cc(c3ccccc3c1)OCCCc1c(C(=O)O)n(C)c3c-2c(Cl)ccc13` [AZD5991] + C[C@@H](Nc1cc(F)cc(F)c1)c1cc(C(=O)N(C)C)cc2c(=O)cc(N3CCOCC3)oc12 [AZD8186] (first compound max 1 µM, 7x7, partner max 3 µM) here?
A: The Bliss excess was 0.0598.

Q: What about the Bliss excess (CHL-1 (Melanoma)) of the same compound?
A: Its Bliss excess is 0.0292.

Q: And the Bliss excess [2]?
A: Its Bliss excess is -0.0136.

Q: And the Bliss excess [3]?
A: Its Bliss excess is 0.0317.

Q: Which Bliss excess [1] does the source give for `Cc1c2c(nn1C)CSCc1cc(n(C)n1)CSc1cc(c3ccccc3c1)OCCCc1c(C(=O)O)n(C)c3c-2c(Cl)ccc13` [AZD5991] + Cn1cnc2c(F)c(Nc3ccc(Br)cc3Cl)c(C(=O)NOCCO)cc21 [Selumetinib] (first compound max 1 µM, 7x7, partner max 3 µM) here?
A: Its Bliss excess is 0.0466.

Q: What about the Bliss excess (CHL-1 (Melanoma)) of the same compound?
A: Its Bliss excess is -0.0031.

Q: What about the Bliss excess [2] of the same compound?
A: The Bliss excess was 0.0244.

Q: And the Bliss excess [3]?
A: Its Bliss excess is 0.0427.

Q: Which Bliss excess [1] does the source give for `CN(CCO)CC[C@H](CSc1ccccc1)Nc1ccc(S(=O)(=O)NC(=O)c2ccc(N3CCC([C@@H](O)c4ccccc4-c4ccc(Cl)cc4)CC3)cc2)cc1S(=O)(=O)C(F)(F)F` [AZD4320] + CCN(CCO)CCCOc1ccc2c(Nc3cc(CC(=O)Nc4cccc(F)c4)[nH]n3)ncnc2c1 [AZD2811] (first compound max 1 µM, 7x7, partner max 1 µM) here?
A: The Bliss excess was -0.028.

Q: What about the Bliss excess (CHL-1 (Melanoma)) of the same compound?
A: The Bliss excess was 0.133.

Q: What about the Bliss excess [2] of the same compound?
A: Its Bliss excess is 0.0483.

Q: What about the Bliss excess [3] of the same compound?
A: Its Bliss excess is -0.0024.
